Data on 40 compounds can be found in the OPERA property sets (Mansouri et al. 2018).

Conditions in the first series: not given
The compound `SCCS` registered a boiling point of 146 °C, a log10 vapour pressure (mmHg) of 0.749 and a melting point of -41.2 °C.
For `CCCCCCCCCCCCCCCC(=O)N(CCO)CCO`, the ready biodegradability entry is “readily biodegradable”.
`Clc1ccc(Cl)c2ncccc12` showed a melting point of 97.5 °C.
Turning to `CCOP(=S)(Oc1ccc([N+](=O)[O-])cc1)c1ccccc1` (stereo unspecified), the log10 Koc (L/kg) worked out at 3.12, the log10 vapour pressure (mmHg) was -6.02, the melting point worked out at 36 °C and the ready biodegradability result was “not readily biodegradable”.
Regarding `CC(C)CC(=O)OC(=O)CC(C)C`, the boiling point was 215 °C.
Consider `CCCCCCCCCCCCC(=O)OC`, for which the log10 vapour pressure (mmHg) is -2.89 and the melting point worked out at 6.5 °C.
As for `O=C(CN1CCN(Cc2ccc3c(c2)OCO3)CC1)N1c2ccccc2Sc2ccccc21`, the melting point came out at 142 °C.
Consider `COCCN`, for which the boiling point is 95 °C.
In the case of `Nc1ccccc1-c1ccccc1`, the boiling point was 299 °C, the melting point stood at 51 °C and the ready biodegradability result is given as “not readily biodegradable”.
In turn, `Nc1cc2c3ccccc3ccc2c2ccccc12` gave a log10 Koc (L/kg) of 5.21 and a melting point of 210 °C.
`C=COCC(F)(F)F` registered a boiling point of 42.5 °C.
`CCCOCCO` yielded a boiling point of 150 °C and a log10 vapour pressure (mmHg) of 0.494.
`COc1ccc(NC(=O)N(C)C)cc1Cl` yielded a log10 Koc (L/kg) of 1.72 and a melting point of 126 °C.
For the compound `CC[C@H]1CC[C@H]2[C@@H]3CC[C@@H]4CCCC[C@]4(C)[C@H]3CC[C@]12C`, the melting point was determined as 84 °C.
The compound `CCOC(=O)c1cccc(Cl)c1O` displayed a boiling point of 270 °C and a melting point of 21 °C.
In the case of `COP(=O)(O)OC`, the boiling point came to 174 °C.
With `COc1cc(NC(=O)C(N=Nc2ccc(-c3ccc(N=NC(C(C)=O)C(=O)Nc4cc(OC)c(Cl)cc4OC)c(Cl)c3)cc2Cl)C(C)=O)c(OC)cc1Cl` (stereo unspecified), the ready biodegradability result was “not readily biodegradable”.
Compound `CCCCCCOCCCCCC` showed a boiling point of 223 °C and a log10 vapour pressure (mmHg) of -1.34.
The compound `C1CCNC1` displayed a boiling point of 86.5 °C, a log10 Henry constant (atm·m³/mol) of -5.62, a log10 Koa of 4.07 and a log10 vapour pressure (mmHg) of 1.8. Moreover, the melting point is -57.8 °C.
Compound `CCN(CC)C(=O)COC(=O)c1ccccc1` came in with a melting point of 72.5 °C.
For `C=CCCCCCCCCCCCCCCCCCCCC`, the boiling point was determined as 367 °C and the melting point stood at 38 °C.
`COc1nsnc1NS(=O)(=O)c1ccc(N)cc1` showed a melting point of 150 °C.
Turning to `CC(C)C(O)C(C)C`, the boiling point is 139 °C and the log10 vapour pressure (mmHg) is 0.477.
Turning to `CCCC(=O)c1ccc(Cl)cc1`, the melting point was 19.5 °C.
Consider `CCC(C)(O)C#CC(C)(O)CC` (stereo unspecified), for which the boiling point stood at 135 °C.
As to `FC(F)(Cl)C(Cl)Cl`, the boiling point is 71.9 °C.
Consider `c1ccc(CNCCNCc2ccccc2)cc1`, for which the melting point came to 26 °C.
Regarding `Nc1cc(N)nc(N)n1`, the melting point amounted to 250 °C.
`CCCCCCCCCCCC(=O)OOC(=O)CCCCCCCCCCC`: the melting point is 49 °C and the ready biodegradability result was “readily biodegradable”.
In turn, `C#CC(=C)C` returned a boiling point of 32 °C and a melting point of -113 °C.
Turning to `COc1ccc(C(=O)c2coc(S(N)(=O)=O)c2)cc1`, the melting point worked out at 181 °C.
Take `COc1ccc(C(=O)O)cc1`: the boiling point was 276 °C, the melting point is 185 °C and the ready biodegradability result is reported as “readily biodegradable”.
Consider `CCCCCCOCCOCCO`, for which the boiling point was 260 °C, the log10 vapour pressure (mmHg) is -2.93 and the melting point is -40 °C.
In turn, `CCCC(C)=C(CC)C(C)=O` registered a boiling point of 190 °C.
With `COc1ccccc1CC#N`, the melting point is 69.8 °C.
As for `Cc1cccc(N)c1N`, the boiling point came to 255 °C, the log10 vapour pressure (mmHg) is -3.26 and the melting point worked out at 63.5 °C.
`CC(C)=CCN1CC[C@@]2(C)c3cc(O)ccc3C[C@@H]1[C@@H]2C`: the melting point is 146 °C.
The same measure, in the same setting: the result for `CCC(=O)c1ccc(O)cc1O` reads 99 °C.
Regarding `CC(C)c1ccc(C=O)cc1`, the boiling point is 236 °C and the ready biodegradability entry is “readily biodegradable”.
On to `CSc1ccc(O)cc1`, for which the ready biodegradability entry is “not readily biodegradable”.

Staying with this series, now noted: fish.
With `CCOP(=S)(Oc1ccc([N+](=O)[O-])cc1)c1ccccc1` (stereo unspecified), the log10 BCF stood at 2.97.
The compound `Nc1ccccc1-c1ccccc1` returned a log10 BCF of 1.41 and a log10 biotransformation half-life (days) of -1.06.
